Test results: US20050054692A1, “Azanthranylalkyl and -cycloalkyl amides and their use as VEGF receptor inhibitors” (priority 2000, published 2005)

Tests used:
VEGFR II (KDR kinase) = VEGFR II (KDR kinase) (Homo sapiens, UniProt P35968); test: Inhibition of KDR kinase activity (33P-ATP, poly-(Glu4Tyr) filter assay); format: biochemical; settings: 10 minutes at room temperature; poly-(Glu4Tyr) substrate
Description: Solutions Required for the Tests
Stock solution A: 3mM ATP in water pH 7.0 (−70° C.)
Stock solution B: g-33P-ATP 1 mCi/100 μl
Stock solution C: poly-(Glu4Tyr) 10 mg/ml in water
Substrate solvent: 10 mM DTT, 10 mM manganese chloride 100 mM magnesium chloride
Enzyme solution: 120 mM Tris/HCl, pH 7,5,10 μM sodium vanadium oxide
Inhibition of KDR- and FLT-1 kinase activity in the presence of the compounds according to the invention
10 μl of substrate mix [10 μl vol ATP stock solution A+25 μCi g-33P-ATP (ca. 2.5 μl of stock solution B)+30 μl poly-(Glu4Tyr) stock solution C+1.21 ml substrate solvent], 10 μl inhibitor solution [substances corresponding to the dilutions, as a control 3% DMSO in substrate solvent] and 10 μl enzyme solution [11.25 μg enzyme stock solution (KDR or FLT-1 kinase) are diluted at 4° C. in 1.25 ml enzyme solution], are added to a tapering microtitre plate (without protein binding). The mixture is mixed thoroughly and incubated for 10 minutes at room temperature. Subsequently, 10 μl of stop solution (250 mM EDTA, pH 7.0) is added, mixed and 10 μl of the solution transferred to a P 81 phosphocellulose filter. It is subsequently washed several times in 0.1 M phosphoric acid. The filter paper is dried, coated with MeltiLex and measured in a MicroBeta counter.
The IC50 values are determined from the concentration of inhibitor required to inhibit the phosphate incorporation to 50% of the uninhibited incorporation after deducting the reference value (EDTA-stopped reaction).

Chain of VEGFR II (KDR kinase) (P35968 20-1356): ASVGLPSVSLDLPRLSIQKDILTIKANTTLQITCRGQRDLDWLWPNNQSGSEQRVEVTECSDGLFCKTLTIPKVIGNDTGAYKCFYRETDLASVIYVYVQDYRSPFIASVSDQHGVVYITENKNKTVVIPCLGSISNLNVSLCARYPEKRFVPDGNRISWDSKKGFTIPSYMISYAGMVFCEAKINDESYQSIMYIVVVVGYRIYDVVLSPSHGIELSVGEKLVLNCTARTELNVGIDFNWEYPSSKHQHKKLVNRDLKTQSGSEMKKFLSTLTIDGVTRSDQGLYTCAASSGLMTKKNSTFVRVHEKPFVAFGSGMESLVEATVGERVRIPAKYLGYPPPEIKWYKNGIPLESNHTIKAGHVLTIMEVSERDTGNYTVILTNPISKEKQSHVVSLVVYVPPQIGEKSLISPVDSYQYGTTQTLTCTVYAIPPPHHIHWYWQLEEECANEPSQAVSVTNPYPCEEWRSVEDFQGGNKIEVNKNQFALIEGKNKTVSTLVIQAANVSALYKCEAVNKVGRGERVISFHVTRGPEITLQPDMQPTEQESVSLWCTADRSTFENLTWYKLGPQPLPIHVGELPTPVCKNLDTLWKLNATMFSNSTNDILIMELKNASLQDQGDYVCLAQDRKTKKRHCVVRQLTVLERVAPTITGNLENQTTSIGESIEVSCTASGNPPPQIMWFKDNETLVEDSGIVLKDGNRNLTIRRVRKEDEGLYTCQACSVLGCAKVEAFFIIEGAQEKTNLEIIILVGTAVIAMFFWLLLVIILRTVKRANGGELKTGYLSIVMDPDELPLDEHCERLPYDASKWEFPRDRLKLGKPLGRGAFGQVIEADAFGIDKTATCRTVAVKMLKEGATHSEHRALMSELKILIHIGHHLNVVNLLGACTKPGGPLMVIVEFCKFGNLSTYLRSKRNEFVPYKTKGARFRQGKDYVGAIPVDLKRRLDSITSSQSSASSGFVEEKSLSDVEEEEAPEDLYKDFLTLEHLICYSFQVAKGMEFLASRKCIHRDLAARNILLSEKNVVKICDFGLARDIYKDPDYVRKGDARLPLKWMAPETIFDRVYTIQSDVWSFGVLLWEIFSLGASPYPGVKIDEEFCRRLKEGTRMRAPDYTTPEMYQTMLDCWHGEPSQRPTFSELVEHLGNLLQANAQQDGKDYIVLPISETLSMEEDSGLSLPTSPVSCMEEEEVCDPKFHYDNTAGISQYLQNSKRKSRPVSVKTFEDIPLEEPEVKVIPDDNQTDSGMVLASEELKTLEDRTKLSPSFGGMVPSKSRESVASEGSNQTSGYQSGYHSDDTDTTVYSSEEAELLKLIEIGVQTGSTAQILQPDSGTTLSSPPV

Row | Structure (SMILES) | melting point [°C] | IC50 (VEGFR II (KDR kinase)) [nM]
1 | CC(C)(C)[C@H]1CC[C@H](NC(=O)c2ccccc2NCc2ccncc2)CC1 [Example 1.8] | 118.4 | 39
2 | O=C(NCCN1CCCCC1)c1ccccc1NCc1ccncc1 [Example 1.27] | 65.2 | 1000
3 | CCCCCCCCCCNC(=O)c1ccccc1NCc1ccncc1 [Example 1.14] | – | 200
4 | O=C(NC1CCCCCCC1)c1ccccc1NCc1ccncc1 [Example 1.4] | 103 to 104 | 80
5 | CC(C)(C)CCNC(=O)c1ccccc1NCc1ccncc1 [Example 1.19] | – | 50
6 | CC(C)CC(C)NC(=O)c1ccccc1NCc1ccncc1 (stereo not drawn) [Example 1.23] | – | 500
